This is an account of results in PMC4168798 (ACS Chemical Biology, 2014).

Assay [1] deals with T1, Mcl-1 (Homo sapiens, UniProt Q07820). Kind of assay: direct fluorescence anisotropy binding.
The subject of assay [2] is Bcl-xL. To be noted: NoxaA BH3 peptide from murine Noxa; cited from earlier work.
Assay [3] relates to Bcl-2. As to conditions: NoxaA BH3 peptide from murine Noxa; cited from earlier work.
Assay [4] deals with Bcl-w. As to conditions: NoxaA BH3 peptide from murine Noxa; cited from earlier work.
Assay [5] relates to Bfl-1. As to conditions: NoxaA BH3 peptide from murine Noxa; cited from earlier work.
Another assay deals with T2, KSBcl-2 (Human herpesvirus 8 type P, UniProt F5HGJ3).
T2 sequence (F5HGJ3 1-150): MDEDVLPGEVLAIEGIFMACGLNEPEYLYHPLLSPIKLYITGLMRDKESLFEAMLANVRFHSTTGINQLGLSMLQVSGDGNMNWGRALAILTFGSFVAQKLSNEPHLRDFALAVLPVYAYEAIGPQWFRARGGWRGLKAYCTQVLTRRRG
Kind of assay: direct fluorescence anisotropy binding. Also on record: species or system Kaposi sarcoma herpesvirus.

For assay [6], the target named is T3, Bfl-1 (Homo sapiens, UniProt Q16548).
T3 sequence (Q16548 1-151 limits assumed): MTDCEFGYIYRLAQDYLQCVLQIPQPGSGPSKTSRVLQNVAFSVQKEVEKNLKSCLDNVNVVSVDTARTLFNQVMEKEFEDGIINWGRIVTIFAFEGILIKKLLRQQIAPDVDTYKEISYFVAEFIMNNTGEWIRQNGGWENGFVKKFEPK
Kind of assay: direct fluorescence anisotropy binding. On the technique in general: Polarisation of emitted light reports the rotation of a fluorescent probe.

Assay [7] concerns the target T4, Bcl-w (Homo sapiens, UniProt Q92843).
T4 sequence (Q92843 1-164 limits assumed): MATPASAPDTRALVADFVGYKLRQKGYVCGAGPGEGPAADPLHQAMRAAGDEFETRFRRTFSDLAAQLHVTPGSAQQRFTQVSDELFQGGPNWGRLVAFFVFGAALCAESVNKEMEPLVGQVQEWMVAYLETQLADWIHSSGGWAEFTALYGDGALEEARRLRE
Kind of assay: direct fluorescence anisotropy binding.

For assay [8], the target named is Bcl-xL (Homo sapiens, UniProt Q07817). As to the kind of experiment: direct fluorescence anisotropy binding.
Assay [9] deals with Bcl-2 (Homo sapiens, UniProt P10415). As to the kind of experiment: direct fluorescence anisotropy binding.
For assay [10], the target named is T1, Mcl-1. As to the kind of experiment: competition fluorescence anisotropy vs fluoresceinated Bim. To be noted: biochemical competition binding experiments; four other human Bcl-2 paralogs.

The structures appear in SMILES notation.

T1 sequence (Q07820 172-327 limits assumed): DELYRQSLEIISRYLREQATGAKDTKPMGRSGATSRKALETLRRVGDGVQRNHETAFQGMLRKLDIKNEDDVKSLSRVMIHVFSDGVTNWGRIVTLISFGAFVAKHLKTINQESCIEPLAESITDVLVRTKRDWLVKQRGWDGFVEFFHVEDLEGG
Bcl-2 (Homo sapiens, UniProt P10415), sequence (P10415 1-217 limits assumed): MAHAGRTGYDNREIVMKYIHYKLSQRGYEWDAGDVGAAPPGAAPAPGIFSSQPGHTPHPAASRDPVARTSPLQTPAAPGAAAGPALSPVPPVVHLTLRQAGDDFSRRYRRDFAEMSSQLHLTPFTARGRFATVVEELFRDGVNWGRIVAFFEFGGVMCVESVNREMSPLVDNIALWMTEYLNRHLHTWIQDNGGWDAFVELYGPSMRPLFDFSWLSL
Bcl-xL (Homo sapiens, UniProt Q07817), sequence (Q07817 1-209 limits assumed): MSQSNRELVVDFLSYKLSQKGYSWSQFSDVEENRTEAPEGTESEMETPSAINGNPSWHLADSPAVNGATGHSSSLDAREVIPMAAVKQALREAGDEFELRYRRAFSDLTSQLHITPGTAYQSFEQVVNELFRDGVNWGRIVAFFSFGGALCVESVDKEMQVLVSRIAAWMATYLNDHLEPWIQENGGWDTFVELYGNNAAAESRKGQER

At Mcl-1 [1], `CC[C@H](C)[C@H](NC(=O)[C@H](CCC(=O)O)NC(=O)[C@@H]1CCCN1C(=O)[C@@H](N)CCCNC(=N)N)C(=O)N[C@@H](Cc1c[nH]c2ccccc12)C(=O)N[C@H](C(=O)N[C@H](C(=O)N[C@@H](CCC(N)=O)C(=O)N[C@@H](CCC(=O)O)C(=O)N[C@@H](CC(C)C)C(=O)N[C@@H](CCCNC(=N)N)C(=O)N[C@@H](CCCNC(=N)N)C(=O)N[C@@H](CC(C)C)C(=O)NCC(=O)N[C@@H](CC(=O)O)C(=O)N[C@@H](CCC(=O)O)C(=O)N[C@@H](Cc1ccccc1)C(=O)N[C@@H](CC(N)=O)C(=O)N[C@@H](C)C(=O)N[C@@H](Cc1ccc(O)cc1)C(=O)N[C@@H](Cc1ccc(O)cc1)C(=O)N[C@@H](C)C(=O)N[C@@H](CCCNC(=N)N)C(N)=O)[C@@H](C)O)[C@@H](C)CC` [Bim_A2eT_I3dL] displayed a Kd of less than 1 nM.

For the compound `CC[C@H](C)[C@H](NC(=O)[C@H](CCCCN)NC(=O)[C@H](CCCNC(=N)N)NC(=O)[C@H](CC(C)C)NC(=O)[C@H](CCC(N)=O)NC(=O)[C@H](C)NC(=O)[C@H](C)NC(=O)[C@H](Cc1ccccc1)NC(=O)[C@H](CCC(=O)O)NC(=O)[C@@H]1CCCN1C(=O)[C@@H]1CCCN1C(=O)[C@H](CC(C)C)NC(=O)[C@H](CCC(=O)O)NC(=O)[C@H](C)NC(C)=O)C(=O)NCC(=O)N[C@@H](CC(=O)O)C(=O)N[C@@H](CCCCN)C(=O)N[C@H](C(=O)N[C@@H](Cc1ccc(O)cc1)C(=O)N[C@@H](CS)C(N)=O)C(C)C` [NoxaA], the “no binding to Bcl-xL up to” value in the assay on Bcl-xL [2] is greater than 2500 nM. The “no binding to Bcl-2 up to” value in the assay on Bcl-2 [3] is recorded as greater than 2500 nM. Further, the “no binding to Bcl-w up to” value in the assay with Bcl-w [4] is greater than 2500 nM. Further, the “no binding to Bfl-1 up to” value with Bfl-1 [5] is on record as greater than 2500 nM.

Regarding `CC[C@H](C)[C@H](NC(=O)[C@H](CCC(=O)O)NC(=O)[C@H](CC(=O)O)NC(=O)CNC(=O)[C@H](CC(C)C)NC(=O)[C@H](CCCNC(=N)N)NC(=O)[C@H](CCC(N)=O)NC(=O)[C@H](CC(C)C)NC(=O)[C@H](CO)NC(=O)[C@H](CCC(N)=O)NC(=O)[C@@H](NC(=O)[C@H](CC(C)C)NC(=O)[C@H](Cc1c[nH]c2ccccc12)NC(=O)[C@@H](NC(=O)[C@H](CCC(=O)O)NC(=O)[C@@H]1CCCN1C(=O)[C@H](CCCNC(=N)N)NC(C)=O)[C@@H](C)CC)[C@@H](C)O)C(=O)N[C@@H](CC(N)=O)C(=O)N[C@@H](C)C(=O)N[C@@H](Cc1ccc(O)cc1)C(=O)N[C@@H](Cc1ccc(O)cc1)C(=O)N[C@@H](C)C(=O)N[C@@H](CCCNC(=N)N)C(N)=O` [MS2], the Kd on KSBcl-2 is less than 1 nM.

`CC[C@H](C)[C@H](NC(=O)[C@H](CCCNC(=N)N)NC(=O)[C@H](CCCNC(=N)N)NC(=O)[C@H](CC(C)C)NC(=O)[C@H](CCC(=O)O)NC(=O)[C@H](CCC(N)=O)NC(=O)[C@@H](NC(=O)[C@H](CCSC)NC(=O)[C@H](Cc1c[nH]c2ccccc12)NC(=O)[C@@H](NC(=O)[C@H](CCC(=O)O)NC(=O)[C@@H]1CCCN1C(=O)[C@@H](N)CCCNC(=N)N)[C@@H](C)CC)[C@@H](C)O)C(=O)NCC(=O)N[C@@H](CC(=O)O)C(=O)N[C@@H](CCC(=O)O)C(=O)N[C@@H](Cc1ccccc1)C(=O)N[C@@H](CC(N)=O)C(=O)N[C@@H](C)C(=O)N[C@@H](Cc1ccc(O)cc1)C(=O)N[C@@H](Cc1ccc(O)cc1)C(=O)N[C@@H](C)C(=O)N[C@@H](CCCNC(=N)N)C(N)=O` [Bim_A2eT_I2dM] yielded a Kd at Mcl-1 [1] of less than 1 nM.

In turn, `CC[C@H](C)[C@H](NC(=O)[C@H](CCCNC(=N)N)NC(=O)[C@H](CCCNC(=N)N)NC(=O)[C@H](CC(C)C)NC(=O)[C@H](CCC(=O)O)NC(=O)[C@H](CCC(N)=O)NC(=O)[C@@H](NC(=O)[C@@H](NC(=O)[C@H](Cc1c[nH]c2ccccc12)NC(=O)[C@@H](NC(=O)[C@H](CCC(=O)O)NC(=O)[C@@H]1CCCN1C(=O)[C@@H](N)CCCNC(=N)N)[C@@H](C)CC)[C@@H](C)CC)[C@@H](C)O)C(=O)NCC(=O)N[C@@H](CC(=O)O)C(=O)N[C@@H](CCC(=O)O)C(=O)N[C@@H](Cc1ccccc1)C(=O)N[C@@H](CC(N)=O)C(=O)N[C@@H](C)C(=O)N[C@@H](Cc1ccc(O)cc1)C(=O)N[C@@H](Cc1ccc(O)cc1)C(=O)N[C@@H](C)C(=O)N[C@@H](CCCNC(=N)N)C(N)=O` [Bim_A2eT] came in with a Kd on Mcl-1 [1] of less than 1 nM.

Regarding `CC[C@H](C)[C@H](NC(=O)[C@H](CCCNC(=N)N)NC(=O)[C@H](CCCNC(=N)N)NC(=O)[C@H](CC(C)C)NC(=O)[C@H](CCC(=O)O)NC(=O)[C@H](CCC(N)=O)NC(=O)[C@@H](NC(=O)[C@@H](NC(=O)[C@H](Cc1c[nH]c2ccccc12)NC(=O)[C@@H](NC(=O)[C@H](CCC(=O)O)NC(=O)[C@@H]1CCCN1C(=O)[C@@H](N)CCCNC(=N)N)[C@@H](C)CC)[C@@H](C)CC)[C@@H](C)O)C(=O)NCC(=O)N[C@@H](CC(=O)O)C(=O)N[C@@H](CCC(=O)O)C(=O)N[C@H](C(=O)N[C@@H](CC(N)=O)C(=O)N[C@@H](C)C(=O)N[C@@H](Cc1ccc(O)cc1)C(=O)N[C@@H](Cc1ccc(O)cc1)C(=O)N[C@@H](C)C(=O)N[C@@H](CCCNC(=N)N)C(N)=O)[C@@H](C)CC` [Bim_A2eT_F4aI], the Kd is less than 1 nM on Mcl-1 [1]; 7.9 ± 2.1 nM on Bfl-1 [6]; 16 ± 4.1 nM at Bcl-w [7]; 110 ± 62 nM at Bcl-xL [8]; 150 ± 43 nM on Bcl-2 [9].

For `CC[C@H](C)[C@H](NC(=O)[C@H](CCC(=O)O)NC(=O)[C@H](CC(=O)O)NC(=O)CNC(=O)[C@H](CC(C)C)NC(=O)[C@H](CCCNC(=N)N)NC(=O)[C@H](CCC(N)=O)NC(=O)[C@H](CC(C)C)NC(=O)[C@H](Cc1c[nH]cn1)NC(=O)[C@H](CCC(N)=O)NC(=O)[C@@H](NC(=O)[C@H](CC(C)C)NC(=O)[C@H](Cc1c[nH]c2ccccc12)NC(=O)[C@@H](NC(=O)[C@H](CCC(=O)O)NC(=O)[C@@H]1CCCN1C(=O)[C@@H](N)CCCNC(=N)N)[C@@H](C)CC)[C@@H](C)O)C(=O)N[C@@H](CC(N)=O)C(=O)N[C@@H](C)C(=O)N[C@@H](Cc1ccc(O)cc1)C(=O)N[C@@H](Cc1ccc(O)cc1)C(=O)N[C@@H](C)C(=O)N[C@@H](CCCNC(=N)N)C(N)=O` [MS3], the Kd at Mcl-1 [1] is 2 ± 1.2 nM; on Bcl-2 [9] it was greater than 3000 nM.

At KSBcl-2, `CC[C@H](C)[C@H](NC(=O)[C@H](CCC(=O)O)NC(=O)[C@H](CC(=O)O)NC(=O)CNC(=O)[C@H](CC(C)C)NC(=O)[C@H](CCCNC(=N)N)NC(=O)[C@H](CCCNC(=N)N)NC(=O)[C@H](CC(C)C)NC(=O)CNC(=O)[C@H](CCC(N)=O)NC(=O)[C@@H](NC(=O)[C@H](CCSC)NC(=O)[C@H](Cc1c[nH]c2ccccc12)NC(=O)[C@@H](NC(=O)[C@H](CCC(=O)O)NC(=O)[C@@H]1CCCN1C(=O)[C@H](CCCNC(=N)N)NC(C)=O)[C@@H](C)CC)[C@@H](C)O)C(=O)N[C@@H](CC(N)=O)C(=O)N[C@@H](C)C(=O)N[C@@H](Cc1ccc(O)cc1)C(=O)N[C@@H](Cc1ccc(O)cc1)C(=O)N[C@@H](C)C(=O)N[C@@H](CCCNC(=N)N)C(N)=O` [MS1] gave a Kd of 2.9 ± 0.68 nM. The “specificity for Mcl-1 over Bcl-xL, Bcl-2, Bcl-w and Bfl-1” value on Mcl-1 [10] was no less than 40 fold.

For orientation: Kd means the free concentration of one partner at which half of the binding sites on the other are occupied at equilibrium, for simple one-to-one binding. Read a high Kd as a looser complex.
